# Source: patent publication US7994172B2, “[1H-pyrazolo[3, 4-D]pyrimidin-4-yl]-piperidine or -piperazine compounds as serine-theoronine kinase modulators (P70s6k, Atk1 and Atk2) for the treatment of immunological, inflammatory and proliferative diseases” (Exelixis, Inc., priority 2004, dated 2011)
# Key:
# [1] = target: T1, human Akt1 kinase (kinase domain residues R144-A480, activated with PDK1) (Homo sapiens, UniProt P31749); experiment: Akt1 kinase assay, Luciferase-Coupled Chemiluminescent Kinase assay (LCCA); format: biochemical; settings: 1 μM ATP, 1.3 nM Akt1; read-out: Akt-1 inhibition IC50
# T1 construct: made in house
# T1 sequence (P31749 144-480): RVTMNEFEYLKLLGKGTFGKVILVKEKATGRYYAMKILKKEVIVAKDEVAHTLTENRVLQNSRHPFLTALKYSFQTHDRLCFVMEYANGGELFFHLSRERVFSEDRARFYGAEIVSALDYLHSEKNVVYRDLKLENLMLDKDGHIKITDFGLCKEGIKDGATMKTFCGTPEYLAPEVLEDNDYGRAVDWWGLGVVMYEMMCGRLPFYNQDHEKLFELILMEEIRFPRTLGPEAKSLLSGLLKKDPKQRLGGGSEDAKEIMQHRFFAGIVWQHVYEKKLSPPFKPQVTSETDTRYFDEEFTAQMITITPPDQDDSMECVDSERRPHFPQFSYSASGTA
# Method: (§1) Kinase activity and compound inhibition are investigated using one or more of the three assay formats described below. The ATP concentrations for each assay are selected to be close to the Michaelis-Menten constant (KM) for each individual kinase. Dose-response experiments are performed at 10 different inhibitor concentrations in a 384-well plate format. The data are fitted to four-parameter equation (2) below; where Y is the observed signal, X is the inhibitor concentration, Min is the background signal in the absence of enzyme (0% enzyme activity), Max is the signal in the absence of inhibitor (100% enzyme activity), IC50 is the inhibitor concentration at 50% enzyme inhibition and H represents the empirical Hill's slope to measure the cooperativity. Typically H is close to unity. Y=Min+(Max−Min)/(1+(X/IC50)^H) Equation (2) p70S6 Kinase Assay
# Biochemical activity of Akt1 kinase was assessed using a Luciferase-Coupled Chemiluminescent Kinase assay (LCCA) format. Kinase activity was measured as the percent ATP remaining following the kinase reaction. Remaining ATP was detected by luciferase-luciferin-coupled chemiluminescence. Specifically, the reaction was initiated by mixing test compounds, 1 μM ATP, 5 μM crosstide peptide and 1.3 nM Akt1 (baculovirus expressed human Akt1 kinase domain residues R144-A480, activated with PDK1) in a 20 uL assay buffer (20 mM Tris-HCL pH 7.5, 10 mM MgCl2, 0.01% Triton X-100, 1 mM DTT, 3 mM MnCl2). The mixture is incubated at ambient temperature for 3 hours after which 20 μL luciferase-luciferin mix is added and the chemiluminescent signal read using a Wallac Victor2 reader. The luciferase-luciferin mix consists of 50 mM HEPES, pH 7.8, 8.5 μg/mL oxalic acid (pH 7.8), 5 (or 50) mM DTT, 0.4% Triton X-100, 0.25 mg/mL coenzyme A, 63 uM AMP, 28 μg/mL luciferin and 40,000 units/mL luciferase.
# [2] = target: T2, human p70S6 kinase (p70S6K, kinase domain residues 1-421, T412E mutation) (Homo sapiens, UniProt P23443, T412E); experiment: p70S6 kinase assay, Luciferase-Coupled Chemiluminescent Kinase assay (LCCA); format: biochemical; settings: 5 μM ATP, 12 nM p70S6K; read-out: p70S6K inhibition IC50
# T2 construct: human p70S6 kinase domainresidues 1-421, containing a T412E mutation; made in house
# T2 sequence (P23443 1-421 T412E): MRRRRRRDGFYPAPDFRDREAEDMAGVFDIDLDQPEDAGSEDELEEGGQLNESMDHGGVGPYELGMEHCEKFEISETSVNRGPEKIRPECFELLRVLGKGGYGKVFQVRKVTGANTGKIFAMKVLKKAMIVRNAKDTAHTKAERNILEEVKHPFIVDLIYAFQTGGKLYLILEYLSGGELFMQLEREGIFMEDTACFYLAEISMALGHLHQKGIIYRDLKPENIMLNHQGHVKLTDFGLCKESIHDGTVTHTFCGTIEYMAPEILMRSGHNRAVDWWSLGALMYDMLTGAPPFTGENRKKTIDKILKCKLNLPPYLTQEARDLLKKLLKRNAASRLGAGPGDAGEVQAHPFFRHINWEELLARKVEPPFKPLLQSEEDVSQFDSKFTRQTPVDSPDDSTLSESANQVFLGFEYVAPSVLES
# Method: as §1
# Biochemical activity of p70S6 kinase was assessed using a Luciferase-Coupled Chemiluminescent Kinase assay (LCCA) format. Kinase activity was measured as the percent ATP remaining following the kinase reaction. Remaining ATP was detected by luciferase-luciferin-coupled chemiluminescence. Specifically, the reaction was initiated by mixing test compounds, 5 μM ATP, 5 μM RRRLSSLRA peptide and 12 nM p70S6K (baculovirus expressed human p70S6 kinase domainresidues 1-421, containing a T412E mutation) in a 20 uL assay buffer (20 mM Tris-HCL pH 7.5, 10 mM MgCl2, 0.02% Triton X-100, 100 mM DTT, 2 mM MnCl2). The mixture is incubated at ambient temperature for 2 hours after which 20 μL luciferase-luciferin mix is added and the chemiluminescent signal read using a Wallac Victor^2 reader. The luciferase-luciferin mix consists of 50 mM HEPES, pH 7.8, 8.5 μg/mL oxalic acid (pH 7.8), 5 (or 50) mM DTT, 0.4% Triton X-100, 0.25 mg/mL coenzyme A, 63 uM AMP, 28 μg/mL luciferin and 40,000 units/mL luciferase.
Compound,IC50 [1],IC50 [2]
"OC(c1ccc(Cl)cc1)C1CCN(c2ncnc3[nH]nc(Br)c23)CC1 (centres unmarked) [Entry 1, [1-(3-bromo-1H-pyrazolo[3,4-d]pyrimidin-4-yl)piperidin-4-yl](4-chlorophenyl)methanol]",< 50 nM,< 50 nM
"CN(C)CCCOC(c1ccc(Cl)cc1)C1CCN(c2ncnc3[nH]nc(Br)c23)CC1 (centres unmarked) [Entry 3, 3-{[[1-(3-bromo-1H-pyrazolo[3,4-d]pyrimidin-4-yl)piperidin-4-yl](4-chlorophenyl)methyl]oxy}-N,N-dimethylpropan-1-amine]",< 50 nM,< 50 nM
"Brc1ccc(CN2CCN(c3ncnc4[nH]nc(Br)c34)CC2)cc1 [Entry 4, 3-bromo-4-{4-[(4-bromophenyl)methyl]piperazin-1-yl}-1H-pyrazolo[3,4-d]pyrimidine]",50 to 500 nM,< 50 nM
"OCC1CN(c2ncnc3[nH]nc(Br)c23)CCN1Cc1ccc(Cl)cc1 (centres unmarked) [Entry 5, {4-(3-bromo-1H-pyrazolo[3,4-d]pyrimidin-4-yl)-1-[(4-chlorophenyl)methyl]piperazin-2-yl}methanol]",50 to 500 nM,< 50 nM
"CCN(CC)CCNC(c1ccc(Cl)cc1)C1CCN(c2ncnc3[nH]nc(Br)c23)CC1 (centres unmarked) [Entry 6, N′-[[1-(3-bromo-1H-pyrazolo[3,4-d]pyrimidin-4-yl)piperidin-4-yl](4-chlorophenyl)methyl]-N,N-diethylethane-1,2-diamine]",< 50 nM,< 50 nM
"O=C1CN(c2ncnc3[nH]nc(Br)c23)CCN1Cc1ccc(Cl)cc1 [Entry 8, 4-(3-bromo-1H-pyrazolo[3,4-d]pyrimidin-4-yl)-1-[(4-chlorophenyl)methyl]piperazin-2-one]",50 to 500 nM,< 50 nM
"CN(C)CCNC(=O)C(c1ccc(Cl)cc1)N1CCN(c2ncnc3[nH]nc(Br)c23)CC1 (centres unmarked) [Entry 9, 2-[4-(3-bromo-1H-pyrazolo[3,4-d]pyrimidin-4-yl)piperazin-1-yl]-2-(4-chlorophenyl)-N-[2-(dimethylamino)ethyl]acetamide]",< 50 nM,< 50 nM
"CCN(CC)CCCN(c1ccc(Cl)cc1)C1CCN(c2ncnc3[nH]nc(Br)c23)CC1 [Entry 10, N-[1-(3-bromo-1H-pyrazolo[3,4-d]pyrimidin-4-yl)piperidin-4-yl]-N-(4-chlorophenyl)-N′,N′-diethylpropane-1,3-diamine]",< 50 nM,< 50 nM
"CN(C)CCNC(=O)N(c1ccc(Cl)cc1)C1CCN(c2ncnc3[nH]nc(Br)c23)CC1 [Entry 12, N-[1-(3-bromo-1H-pyrazolo[3,4-d]pyrimidin-4-yl)piperidin-4-yl]-N-(4-chlorophenyl)-N′-[2-(dimethylamino)ethyl]urea]",< 50 nM,< 50 nM
"CN(C)CCNC(=O)NC(c1ccc(Cl)cc1)C1CCN(c2ncnc3[nH]nc(Br)c23)CC1 (centres unmarked) [Entry 13, N-[[1-(3-bromo-1H-pyrazolo[3,4-d]pyrimidin-4-yl)piperidin-4-yl](4-chlorophenyl)methyl]-N′-[2-(dimethylamino)ethyl]urea]",< 50 nM,< 50 nM
"CN(C)CCNC(=O)C(c1ccc(Cl)cc1)N1CCN(c2ncnc3[nH]nc(Br)c23)CC1=O (centres unmarked) [Entry 14, 2-[4-(3-bromo-1H-pyrazolo[3,4-d]pyrimidin-4-yl)-2-oxopiperazin-1-yl]-2-(4-chlorophenyl)-N-[2-(dimethylamino)ethyl]acetamide]",< 50 nM,< 50 nM
"CN(C)CCOC(=O)N(c1ccc(Cl)cc1)C1CCN(c2ncnc3[nH]nc(Br)c23)CC1 [Entry 15, 2-(dimethylamino)ethyl [1-(3-bromo-1H-pyrazolo[3,4-d]pyrimidin-4-yl)piperidin-4-yl](4-chlorophenyl)carbamate]",< 50 nM,< 50 nM
"Fc1cc(CN2CCN(c3ncnc4[nH]nc(Br)c34)CC2)ccc1Cl [Entry 16, 3-bromo-4-{4-[(4-chloro-3-fluorophenyl)methyl]piperazin-1-yl}-1H-pyrazolo[3,4-d]pyrimidine]",50 to 500 nM,< 50 nM
"Fc1cc(Cl)ccc1CN1CCN(c2ncnc3[nH]nc(Br)c23)CC1 [Entry 17, 3-bromo-4-{4-[(4-chloro-2-fluorophenyl)methyl]piperazin-1-yl}-1H-pyrazolo[3,4-d]pyrimidine]",50 to 500 nM,< 50 nM
"CCN(CC)CCN(c1ccc(Cl)cc1)C1CCN(c2ncnc3[nH]nc(Br)c23)CC1 [Entry 18, N-[1-(3-bromo-1H-pyrazolo[3,4-d]pyrimidin-4-yl)piperidin-4-yl]-N-(4-chlorophenyl)-N′,N′-diethylethane-1,2-diamine]",< 50 nM,< 50 nM
"O=C(c1ccc(F)cc1)C1CCN(c2ncnc3[nH]nc(Br)c23)CC1 [Entry 20, [1-(3-bromo-1H-pyrazolo[3,4-d]pyrimidin-4-yl)piperidin-4-yl](4-fluorophenyl)methanone]",< 50 nM,< 50 nM
"CCN(CC)CCN(C)C(c1ccc(Cl)cc1)C1CCN(c2ncnc3[nH]nc(Br)c23)CC1 (centres unmarked) [Entry 21, N-[[1-(3-bromo-1H-pyrazolo[3,4-d]pyrimidin-4-yl)piperidin-4-yl](4-chlorophenyl)methyl]-N′,N′-diethyl-N-methylethane-1,2-diamine]",< 50 nM,< 50 nM
"OC(c1ccc(F)cc1)C1CCN(c2ncnc3[nH]nc(Br)c23)CC1 (centres unmarked) [Entry 22, [1-(3-bromo-1H-pyrazolo[3,4-d]pyrimidin-4-yl)piperidin-4-yl](4-fluorophenyl)methanol]",50 to 500 nM,< 50 nM
"Fc1cc(C(F)(F)F)ccc1CN1CCN(c2ncnc3[nH]nc(Br)c23)CC1 [Entry 23, 3-bromo-4-(4-{[2-fluoro-4-(trifluoromethyl)phenyl]methyl}piperazin-1-yl)-1H-pyrazolo[3,4-d]pyrimidine]",50 to 500 nM,< 50 nM
"CCN(CC)CCC(=O)N(c1ccc(Cl)cc1)C1CCN(c2ncnc3[nH]nc(Br)c23)CC1 [Entry 24, N-[1-(3-bromo-1H-pyrazolo[3,4-d]pyrimidin-4-yl)piperidin-4-yl]-N-(4-chlorophenyl)-N~3~,N~3~-diethyl-beta-alaninamide]",< 50 nM,< 50 nM
"CN(C)CCOC(c1ccc(F)cc1)C1CCN(c2ncnc3[nH]nc(Br)c23)CC1 (centres unmarked) [Entry 25, 2-{[[1-(3-bromo-1H-pyrazolo[3,4-d]pyrimidin-4-yl)piperidin-4-yl](4-fluorophenyl)methyl]oxy}-N,N-dimethylethanamine]",< 50 nM,< 50 nM
"CCN(CC)CCC(=O)NC(c1ccc(Cl)cc1)C1CCN(c2ncnc3[nH]nc(Br)c23)CC1 (stereo not drawn) [Entry 26, N-[[1-(3-bromo-1H-pyrazolo[3,4-d]pyrimidin-4-yl)piperidin-4-yl](4-chlorophenyl)methyl]-N~3~,N~3~-diethyl-beta-alaninamide]",< 50 nM,< 50 nM
"CN(C)CCNC(=O)C(=O)N(c1ccc(Cl)cc1)C1CCN(c2ncnc3[nH]nc(Br)c23)CC1 [Entry 28, N-[1-(3-bromo-1H-pyrazolo[3,4-d]pyrimidin-4-yl)piperidin-4-yl]-N-(4-chlorophenyl)-N′-[2-(dimethylamino)ethyl]ethanediamide]",< 50 nM,< 50 nM
"CCN(CC)CCS(=O)(=O)N(c1ccc(Cl)cc1)C1CCN(c2ncnc3[nH]nc(Br)c23)CC1 [Entry 29, N-[1-(3-bromo-1H-pyrazolo[3,4-d]pyrimidin-4-yl)piperidin-4-yl]-N-(4-chlorophenyl)-2-(diethylamino)ethanesulfonamide]",< 50 nM,< 50 nM
"C=CCCC(=O)N(c1ccc(Cl)cc1)C1CCN(c2ncnc3[nH]nc(Br)c23)CC1 [Entry 35, N-[1-(3-bromo-1H-pyrazolo[3,4-d]pyrimidin-4-yl)piperidin-4-yl]-N-(4-chlorophenyl)pent-4-enamide]",50 to 500 nM,< 50 nM
